Source: patent US5750574A, “Fluorinated N-arylmethylamino derivatives of cyclobutene-3,4-diones” (American Home Products Corporation, priority 1997, dated 1998)

How the values were obtained:
[1] = system: isolated rat bladder strips (smooth muscle); experiment: Inhibition of contractions in isolated rat bladder strips; set-up: species or system Sprague-Dawley rat; conditions: 15 mM KCl-enhanced contractions; for IC50: 0.5 h, 30 minute challenge, ± spread; for inhibition at 30 µM: read-out: Percent inhibition at 30 μM (footnote a)
Method: The smooth muscle relaxing activity of the compounds of this invention was established in accordance with standard pharmaceutically accepted test procedures with representative compounds as follows:
Sprague-Dawley rats (150-200 g) are rendered unconscious by CO2 asphyxiation and then euthanized by cervical dislocation. The bladder is removed into warm (37° C.) physiological salt solution (PSS) of the following composition (mM): NaCl, 118.4; KCl, 4.7; CaCl2, 2.5; […]; NaHCO3, 24.9; KH2 PO4, 1.2; glucose, 11.1; EDTA, 0.023; gassed with 95% O2; […]; pH 7.4 The bladder is opened and then cut into strips 1-2 mm in width and 7-10 mm in length. The strips are subsequently suspended in a 10 mL tissue bath under an initial resting tension of 1.5 g. The strips are held in place by two surgical clips one of which is attached to a fixed hook while the other is attached to an isometric force transducer. […] The carbachol is then washed out and the tissue allowed to relax to its resting level of activity. Following a further 30 min. period of recovery an additional 15 mM KCl are introduced into the tissue bath. This increase in KCl concentration results in a large increase in the amplitude of spontaneous contractions (and initiation of contractions in previously quiescent strips) superimposed upon a small increase in basal tone. Following stabilization of this enhanced level of contractile activity, incremental increases in the concentration of test compound or vehicle are introduced into the tissue bath. Contractile activity is measured for each compound or vehicle concentration during the last minute of a 30 minute challenge.
The isometric force developed by the bladder strips is measured using a […] to elicit 50% inhibition of pre-drug contractile activity (IC50 concentration) and is calculated from this concentration-response curve.

[2] = system: hypertrophied bladder (detrussor) smooth muscle; experiment: Inhibition of spontaneous contractions in vivo, hypertrophied rat bladder model; set-up: species or system female Sprague-Dawley rat; conditions: 3 mg/kg p.o.; 4 animals; conscious rats
From the text: In addition, we tested the ability of compounds to inhibit the hyperactivity of hypertrophied bladder (detrussor) smooth muscle in conscious female rats with hypertrophied bladders and thereby alleviate urinary incontinence in rats according to the following protocol described by Malmgren (A. Malmgren, K. E. Andersson, C. Sjogren, P. O. Andersson, Effects of pinacidil and Cromakalim (BRL 34915) on Bladder Function in Rats with Detrusor Instability, J. Urol. 142:1134, 1989.):
Female Sprague-Dawley rats, ranging in weight from 190-210 g are used. Up to 25 animals are prepared each time. After development of bladder hypertrophy 4-8 animals are used per test.
Compounds are dissolved in PEG-200 and administered by gastric gavage or intraveneously in a volume of 5 ml/kg. For primary screening all drugs are administered at the arbitrary dose of 10 mg/kg p.o. to groups of 4 rats.
The animals are anesthetized with halothane. Through a midline incision the bladder and urethra are exposed and a ligature of 4-0 silk is tied around the proximal urethra in the presence of a stainless steel rod (1 mm diameter) to produce a partial occlusion. The rod is then removed. The abdominal region is closed using surgical staples and each rat receives 150,000 units of bicillin C-R. The animals ar allowed six weeks to develop sufficient bladder hypertrophy. After six weeks, the ligature is removed under halothane anesthesia and a catheter (PE 60) with a cuff is placed in the dome of the bladder and secured with a purse string suture. The catheter is tunneled under the skin and exteriorized through an opening in the back of the neck. The abdominal incision is sutured and the free end of the catheter sealed. In order to prevent infections the rats receive an injection of bicillin C-R (150000 units/rat). Two days later the animals are used in cystometrical evaluations. The animals are placed in the metabolic cages and the catheter is attached (using a "T" connector) to a Statham pressure transducer (Model P23Db) and to a Harvard infusion pump. A plastic beaker attached to a force displacement transducer (Grass FT03) is placed under the rat's cage to collect and record urine volume. Animals are allowed 15-30 min to rest before the saline infusion (20 ml/hr for 20 minutes) is started for the first cystometry period. […]
The following urodynamic variables are recorded: […]
The mean value of each variable is calculated before and after compound administration. For each compound the changes in the variables measured are compared to the values obtained before treatment and expressed as percent inhibition. The data are also subjected to 2-way analysis of variance to determine significant (p<0.05) changes in the variable measured. […]

| SMILES | IC50 [1] [nM] | other results |
| --- | --- | --- |
| CC(C)(C)Nc1c(NCc2cccc(OC(F)(F)F)c2)c(=O)c1=O [Example 12, 3-tert-Butylamino-4-(3-trifluoromethoxy-benzylamino)-cyclobut-3-ene-1,2-dione] | 13600 ± 3300 | – |
| C[C@@H](Nc1c(NCc2ccc(OC(F)(F)F)cc2)c(=O)c1=O)C(C)(C)C [Example 6, (R)-3-(4-trifluoromethoxy-benzylamino)-4-(1,2,2-trimethyl-propylamino)-cyclobut-3-ene-1,2-dione] | – | inhibition at 30 µM [1]: 20.4% |
| C[C@@H](Nc1c(NCc2cccc(OC(F)(F)F)c2)c(=O)c1=O)C(C)(C)C [Example 16, (R)-3-(3-trifluoromethoxy-benzylamino)-4-(1,2,2-trimethyl-propylamino)-cyclobut3-ene-1,2-dione] | – | inhibition at 30 µM [1]: 10% |
| C[C@@H](Nc1c(NCc2ccccc2F)c(=O)c1=O)C(C)(C)C [Example 15, (R)-3-(2-fluoro-benzylamino)-4-(1,2,2-trimethyl-propylamino) cyclobut-3-ene-1,2-dione] | 1230 ± 220 | – |
| C[C@@H](Nc1c(NCc2cccc(C(F)(F)F)c2)c(=O)c1=O)C(C)(C)C [Example 13, (R)-3-(3-trifluoromethyl-benzylamino)-4-(1,2,2-trimethyl-propylamino) cyclobut-3-ene-1,2-dione] | – | inhibition at 30 µM [1]: 40.1% |
| CC(C)(C)Nc1c(NCc2ccc(OC(F)(F)F)cc2)c(=O)c1=O [Example 3, 3-tert-Butylamino-4-(4-trifluoromethoxy-benzylamino)-cyclobut-3-ene-1,2-dione] | – | inhibition at 30 µM [1]: 16.2% |
| CC(C)(C)Nc1c(NCc2ccccc2C(F)(F)F)c(=O)c1=O [Example 11, 3-tert-Butylamino-4-(2-trifluoromethyl-benzylamino)-cyclobut-3-ene-1,2-dione] | 2300 ± 510 | – |

Further molecules by falling IC50 [1], results first:

| IC50 [1] [nM] | SMILES | other results |
| --- | --- | --- |
| 20400 ± 7800 | C[C@@H](Nc1c(NCc2ccccc2C(F)(F)F)c(=O)c1=O)C(C)(C)C [Example 14, (R)-3-(2-trifluoromethyl-benzylamino)-4-(1,2,2-trimethyl-propylamino) cyclobut-3-ene-1,2-dione] | – |
| 7900 ± 2700 | CC(C)(C)Nc1c(NCc2cccc(C(F)(F)F)c2)c(=O)c1=O [Example 10, 3-tert-Butylamino-4-(3-trifluoromethyl-benzylamino)-cyclobut-3-ene-1,2-dione] | – |
| 6500 ± 1900 | C[C@@H](Nc1c(NCc2ccc(C(F)(F)F)cc2)c(=O)c1=O)C(C)(C)C [Example 2, (R)-3-(4-trifluoromethyl-benzylamino)-4-(1,2,2-trimethyl-propylamino)-cyclobut-3-ene-1,2-dione] | – |
| 6500 ± 870 | CC(C)(C)Nc1c(NCc2ccc(C(F)(F)F)cc2)c(=O)c1=O [Example 4, 3-tert-Butylamino-4-(4-trifluoromethyl-benzylamino)-cyclobut-3-ene-1,2-dione] | – |
| 2400 ± 360 | CC(C)(C)Nc1c(NCc2cccc(F)c2)c(=O)c1=O [Example 8, 3-tert-Butylamino-4-(3-fluoro-benzylamino)-cyclobut-3-ene-1,2-dione] | – |
| 2080 ± 250 | CC(C)(C)Nc1c(NCc2ccccc2F)c(=O)c1=O [Example 9, 3-tert-Butylamino-4-(2-fluoro-benzylamino)-cyclobut-3-ene-1,2-dione] | – |
| 1500 ± 320 | CC(C)(C)Nc1c(NCc2ccc(F)cc2)c(=O)c1=O [Example 5, 3-tert-Butylamino-4-(4-fluoro-benzylamino)-cyclobut-3-ene-1,2-dione] | – |
| 760 ± 460 | C[C@@H](Nc1c(NCc2ccc(F)cc2)c(=O)c1=O)C(C)(C)C [Example 1, (R)-3-(4-Fluoro-benzylamino)-4-(1,2,2-trimethyl-propylamino)-cyclobut-3-ene-1,2-dione] | % Ampl: Percent change in the amplitude of spontaneous contractions in the hypertrophied rat bladder model [2]: -64 ± 3%; % Red (F): Percent reduction in the total number of spontaneous contractions in the hypertrophied rat bladder model [2]: 3 ± 25% |
| 360 ± 140 | CCC(C)(C)Nc1c(NCc2ccc(F)cc2)c(=O)c1=O [Example 7, 3-(1,1-Dimethyl-propylamino)-4-(4-fluoro-benzylamino)-cyclobut-3-ene-1,2 dione] | % Ampl: Percent change in the amplitude of spontaneous contractions in the hypertrophied rat bladder model [2]: -3 ± 35%; % Red (F): Percent reduction in the total number of spontaneous contractions in the hypertrophied rat bladder model [2]: 67 ± 2% |
